According to patent US8822505B2, “Azetidine derivatives” (Hoffmann-La Roche Inc., priority 2012, dated 2014):
Structures can show the parent of a compound that is named as a salt.

Experiments:
human Cat L = human Cat L (Homo sapiens (Human), UniProt P07711); test: Cathepsin enzyme inhibition assay (human Cat L); type: biochemical; conditions: enzyme 1 nM, substrate Z-Val-Val-Arg-AMC 20 μM
Description: (§1) Cathepsin Enzyme Inhibition Assay
(§2) Enzyme activity is measured by observing the increase in fluorescence intensity caused by cleavage of a peptide substrate containing a fluorophore whose emission is quenched in the intact peptide.
(§3) Assay buffer: 100 mM potassium phosphate pH 6.5, EDTA-Na 5 mM, Triton X-100 0.001%, DTT 5 mM.
(§4) Enzymes (all at 1 nM): human and mouse Cathepsin S, Cat K, Cat B, Cat L.
(§5) Substrate (20 μM): Z-Val-Val-Arg-AMC, except for Cat K which uses Z-Leu-Arg-AMC (both from Bachem).
Excitation 360 nm, Emission 465 nm.
Enzyme is added to the substance dilutions in 96-well microtitre plates and the reaction is started with substrate. Fluorescence emission is measured over 20 minutes, during which time a linear increase is observed in the absence of inhibitor. IC50 are calculated by standard methods.
Inhibition of human Cat S, mouse Cat S, human Cat K, human Cat B, human Cat L and mouse Cat L have been measured separately. The results obtained for human Cat S and L for representative compounds of the invention are expressed in the following table in μM.

human Cat S = human Cat S (Homo sapiens (Human), UniProt P25774); test: Cathepsin enzyme inhibition assay (human Cat S); type: biochemical; conditions: enzyme 1 nM, substrate Z-Val-Val-Arg-AMC 20 μM
Description: as §1, §2, §3, §4, §5
Enzyme is added to the substance dilutions in 96-well microtitre plates and the reaction is started with substrate. […] IC50 are calculated by standard methods.
Inhibition of human Cat S, mouse Cat S, human Cat K, human Cat B, human Cat L and mouse Cat L have been measured separately.

Chain of human Cat L (P07711 114-333): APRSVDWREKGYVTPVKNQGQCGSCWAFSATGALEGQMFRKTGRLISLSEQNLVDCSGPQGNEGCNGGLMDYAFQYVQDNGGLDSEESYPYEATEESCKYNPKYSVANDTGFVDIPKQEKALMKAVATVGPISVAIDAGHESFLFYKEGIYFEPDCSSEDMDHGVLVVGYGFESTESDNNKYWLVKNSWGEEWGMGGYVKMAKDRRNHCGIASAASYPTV
Chain of human Cat S (P25774 115-331): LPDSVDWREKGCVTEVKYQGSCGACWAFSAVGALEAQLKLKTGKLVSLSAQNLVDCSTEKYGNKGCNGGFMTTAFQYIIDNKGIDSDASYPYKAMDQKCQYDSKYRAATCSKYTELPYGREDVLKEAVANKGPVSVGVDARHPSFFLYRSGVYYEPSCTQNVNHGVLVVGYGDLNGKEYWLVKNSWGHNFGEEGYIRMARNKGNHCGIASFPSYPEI

An IC50 (human Cat L; pH 6.5) of 1070 nM and an IC50 (human Cat S; pH 6.5) of 3.22 nM were found for `COc1ccc(S(=O)(=O)[C@@H]2C[C@@H](C(=O)NC3(C#N)CC3)N(C(=O)C3(c4ccc(Cl)cn4)CN(C(=O)OC(C)(C)C)C3)C2)c(Cl)c1` [Example 1, 3-[(2S,4R)-4-(2-Chloro-4-methoxy-benzenesulfonyl)-2-(1-cyano-cyclopropylcarbamoyl)-pyrrolidine-1-carbonyl]-3-(5-chloro-pyridin-2-yl)-azetidine-1-carboxylic acid tert-butyl ester] in this work.
An IC50 (human Cat L; pH 6.5) of 14.2 nM and an IC50 (human Cat S; pH 6.5) of 3.48 nM were found for `C[C@H](Oc1ccc(S(=O)(=O)[C@@H]2C[C@@H](C(=O)NC3(C#N)CC3)N(C(=O)C3(c4ncc(Br)cc4F)CNC3)C2)c(Cl)c1)C(F)(F)F` [Example 34, (2S,4R)-1-[3-(5-Bromo-3-fluoro-pyridin-2-yl)-azetidine-3-carbonyl]-4-[2-chloro-4-((S)-2,2,2-trifluoro-1-methyl-ethoxy)-benzenesulfonyl]-pyrrolidine-2-carboxylic acid (1-cyano-cyclopropyl)-amide] in this work.
An IC50 (human Cat L; pH 6.5) of 292 nM and an IC50 (human Cat S; pH 6.5) of 1.2 nM were found for `COc1ccc(S(=O)(=O)[C@@H]2C[C@@H](C(=O)NC3(C#N)CC3)N(C(=O)C3(c4ccc(Cl)cn4)CN(C)C3)C2)c(Cl)c1` [Example 3, (2S,4R)-4-(2-Chloro-4-methoxy-benzenesulfonyl)-1-[3-(5-chloro-pyridin-2-yl)-1-methyl-azetidine-3-carbonyl]-pyrrolidine-2-carboxylic acid (1-cyano-cyclopropyl)-amide] in this work.
An IC50 (human Cat L; pH 6.5) of 1340 nM and an IC50 (human Cat S; pH 6.5) of 1.04 nM were found for `CC(C)(C)OC(=O)N1CCC1(C(=O)N1C[C@H](S(=O)(=O)c2ccc(F)cc2Cl)C[C@H]1C(=O)NC1(C#N)CC1)c1ncc(Cl)cc1F` (stereo partly drawn) [Example 21, 2-[(2S,4R)-4-(2-Chloro-4-fluoro-benzenesulfonyl)-2-(1-cyano-cyclopropylcarbamoyl)-pyrrolidine-1-carbonyl]-2-(5-chloro-3-fluoro-pyridin-2-yl)-azetidine-1-carboxylic acid tert-butyl ester] in this work.
An IC50 (human Cat L; pH 6.5, hydrochloride) of 58.5 nM and an IC50 (human Cat S; pH 6.5, hydrochloride) of 3.83 nM were found for `C[C@H](Oc1ccc(S(=O)(=O)[C@@H]2C[C@@H](C(=O)NC3(C#N)CC3)N(C(=O)C3(c4ncc(Cl)cc4F)CCN3)C2)c(Cl)c1)C(F)(F)F` (stereo partly drawn) [Example 37, (2S,4R)-1-[2-(5-Chloro-3-fluoro-pyridin-2-yl)-azetidine-2-carbonyl]-4-[2-chloro-4-((S)-2,2,2-trifluoro-1-methyl-ethoxy)-benzenesulfonyl]-pyrrolidine-2-carboxylic acid (1-cyano-cyclopropyl)-amide hydrochloride] in this work.
An IC50 (human Cat L; pH 6.5) of 78.2 nM and an IC50 (human Cat S; pH 6.5) of 2.92 nM were found for `N#CC1(NC(=O)[C@@H]2C[C@@H](S(=O)(=O)c3ccc(OCC(F)(F)F)cc3Cl)CN2C(=O)C2(c3ncc(Cl)cc3F)CNC2)CC1` [Example 20, (2S,4R)-1-(3-(5-Chloro-3-fluoropyridin-2-yl)azetidine-3-carbonyl)-4-(2-chloro-4-(2,2,2-trifluoroethoxy)phenylsulfonyl)-N-(1-cyanocyclopropyl)pyrrolidine-2-carboxamide] in this work.
An IC50 (human Cat L; pH 6.5) of 2910 nM and an IC50 (human Cat S; pH 6.5) of 0.492 nM were found for `CC(C)(C)OC(=O)N1CCC1(C(=O)N1C[C@H](S(=O)(=O)c2ccc(F)cc2Cl)C[C@H]1C(=O)NC1(C#N)CC1)c1ncc(Br)cc1F` (stereo partly drawn) [Example 25, 2-(5-Bromo-3-fluoro-pyridin-2-yl)-2-[(2S,4R)-4-(2-chloro-4-fluoro-benzenesulfonyl)-2-(1-cyano-cyclopropylcarbamoyl)-pyrrolidine-1-carbonyl]-azetidine-1-carboxylic acid tert-butyl ester] in this work.
An IC50 (human Cat L; pH 6.5) of 26.9 nM and an IC50 (human Cat S; pH 6.5) of 5.46 nM were found for `C[C@H](Oc1ccc(S(=O)(=O)[C@@H]2C[C@@H](C(=O)NC3(C#N)CC3)N(C(=O)C3(c4ncc(Br)cc4F)CCN3)C2)c(Cl)c1)C(F)(F)F` (stereo partly drawn) [Example 39, (2S,4R)-1-[2-(5-Bromo-3-fluoro-pyridin-2-yl)-azetidine-2-carbonyl]-4-[2-chloro-4-((S)-2,2,2-trifluoro-1-methyl-ethoxy)-benzenesulfonyl]-pyrrolidine-2-carboxylic acid (1-cyano-cyclopropyl)-amide hydrochloride] in this work.
An IC50 (human Cat L; pH 6.5) of 89.8 nM was found for `N#CC1(NC(=O)[C@@H]2C[C@@H](S(=O)(=O)c3ccc(OCC(F)(F)F)cc3Cl)CN2C(=O)C2(c3ccc(Cl)cn3)CNC2)CC1` [Example 6, (2S,4R)-1-[3-(5-Chloro-pyridin-2-yl)-azetidine-3-carbonyl]-4-[2-chloro-4-(2,2,2-trifluoro-ethoxy)-benzenesulfonyl]-pyrrolidine-2-carboxylic acid (1-cyano-cyclopropyl)-amide] in this work.
An IC50 (human Cat L; pH 6.5) of 73.5 nM and an IC50 (human Cat S; pH 6.5) of 3.82 nM were found for `N#CC1(NC(=O)[C@@H]2C[C@@H](S(=O)(=O)c3ccc(OCC(F)(F)F)cc3Cl)CN2C(=O)C2(c3ccc(Br)cn3)CNC2)CC1` [Example 7, (2S,4R)-1-[3-(5-Bromo-pyridin-2-yl)-azetidine-3-carbonyl]-4-[2-chloro-4-(2,2,2-trifluoro-ethoxy)-benzenesulfonyl]-pyrrolidine-2-carboxylic acid (1-cyano-cyclopropyl)-amide] in this work.
An IC50 (human Cat L; pH 6.5) of 528 nM was found for `C[C@H](Oc1ccc(S(=O)(=O)[C@@H]2C[C@@H](C(=O)NC3(C#N)CC3)N(C(=O)C3(c4ncc(Cl)cc4F)CCN3C(=O)OC(C)(C)C)C2)c(Cl)c1)C(F)(F)F` (stereo partly drawn) [Example 27, tert-butyl 2-(5-chloro-3-fluoropyridin-2-yl)-2-((2S,4R)-4-(2-chloro-4-((S)-1,1,1-trifluoropropan-2-yloxy)phenylsulfonyl)-2-(1-cyanocyclopropylcarbamoyl)pyrrolidine-1-carbonyl)azetidine-1-carboxylate] in this work.
An IC50 (human Cat L; pH 6.5) of 1240 nM and an IC50 (human Cat S; pH 6.5) of 2.75 nM were found for `CC(C)(C)OC(=O)N1CC(C(=O)N2C[C@H](S(=O)(=O)c3ccc(OCC(F)(F)F)cc3Cl)C[C@H]2C(=O)NC2(C#N)CC2)(c2ccc(Cl)cn2)C1` [Example 4, 3-(5-Chloro-pyridin-2-yl)-3-[(2S,4R)-4-[2-chloro-4-(2,2,2-trifluoro-ethoxy)-benzenesulfonyl]-2-(1-cyano-cyclopropylcarbamoyl)-pyrrolidine-1-carbonyl]-azetidine-1-carboxylic acid tert-butyl ester] in this work.
An IC50 (human Cat L; pH 6.5) of 2010 nM and an IC50 (human Cat S; pH 6.5) of 0.377 nM were found for `CC(C)(C)OC(=O)N1CCC1(C(=O)N1C[C@H](S(=O)(=O)c2ccc(F)cc2Cl)C[C@H]1C(=O)NC1(C#N)CC1)c1ncc(Cl)cc1F` (stereo partly drawn) [Example 23, 2-[(2S,4R)-4-(2-Chloro-4-fluoro-benzenesulfonyl)-2-(1-cyano-cyclopropylcarbamoyl)-pyrrolidine-1-carbonyl]-2-(5-chloro-3-fluoro-pyridin-2-yl)-azetidine-1-carboxylic acid tert-butyl ester] in this work.
An IC50 (human Cat L; pH 6.5) of 556 nM was found for `C[C@H](Oc1ccc(S(=O)(=O)[C@@H]2C[C@@H](C(=O)NC3(C#N)CC3)N(C(=O)C3(c4ncc(Cl)cc4F)CCN3C(=O)OC(C)(C)C)C2)c(Cl)c1)C(F)(F)F` (stereo partly drawn) [Example 28, tert-butyl 2-(5-chloro-3-fluoropyridin-2-yl)-2-((2S,4R)-4-(2-chloro-4-((S)-1,1,1-trifluoropropan-2-yloxy)phenylsulfonyl)-2-(1-cyanocyclopropylcarbamoyl)pyrrolidine-1-carbonyl)azetidine-1-carboxylate] in this work.
An IC50 (human Cat L; pH 6.5) of 12.5 nM was found for `CN1CC(C(=O)N2C[C@H](S(=O)(=O)c3ccccc3Cl)C[C@H]2C(=O)NC2(C#N)CC2)(c2ncc(Br)cc2F)C1` [Example 14, (2S,4R)-1-[3-(5-Bromo-3-fluoro-pyridin-2-yl)-1-methyl-azetidine-3-carbonyl]-4-(2-chloro-benzenesulfonyl)-pyrrolidine-2-carboxylic acid (1-cyano-cyclopropyl)-amide] in this work.
